Experimental data published in US20250042886A1, “BIS(HETERO)ARYL THIOETHER OXADIAZINES AS FUNGICIDAL COMPOUNDS” (Bayer Aktiengesellschaft, priority 2021, published 2025).

Columns and labels:
[1] = Measurement of Log P values by HPLC on reversed phase columns (EEC directive 79/831 Annex V.A8); format: physicochemical; conditions: Table 1, compounds of formula (I); method [a]: LC-UV, acidic range, 0.1% formic acid in water and acetonitrile
Botrytis cinerea [2] = assay: In vivo preventive test on Botrytis cinerea (grey mould); conditions: 500 ppm of active ingredient, sprayed on young gherkin or cabbage plants 24 h before inoculation, evaluated 4 to 5 days after inoculation, read-out: efficacy
Procedure, shortened: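 Young plants of gherkin or cabbage were sprayed with water-diluted compound formulated in DMSO/acetone/Tween 80, with solvent-only controls. Inoculation followed 24 h later by spraying an aqueous spore suspension of Botrytis cinerea onto leaves.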

[3] = test system: Colletotrichum lindemuthianum; assay: In vivo preventive test on Colletotrichum lindemuthianum (leaf spot on bean); conditions: 168 h, 500 ppm of active ingredient, sprayed on young bean plants 24 h before inoculation, evaluated 7 days after inoculation, read-out: efficacy
Method: (§1) B-4. […] The active ingredients were made soluble and homogenized in a mixture of Dimethyl sulfoxide/Acetone//Tween® 80 and then diluted in water to the desired concentration. The young plants of bean were treated by spraying the active ingredient prepared as described above. Control plants were treated only with an aqueous solution of Acetone/Dimethyl sulfoxide/Tween® 80. After 24 hours, the plants were contaminated by spraying the leaves with an aqueous suspension of Colletotrichum lindemuthianum spores.

Alternaria alternata = Alternaria alternata in vitro cell test; format: cell-based; conditions: 120 h, 50 μMol/l of active ingredient, liquid culture, 5 days incubation, read-out: efficacy (inhibition of fungal growth)
Method: B-5. Alternaria alternata In Vitro Cell Test • Solvent: DMSO • Culture medium: 14.6 g anhydrous D-glucose (VWR), 7.1 g Mycological Peptone (Oxoid), 1.4 g granulated Yeast Extract (Merck), QSP 1 liter • Inoculum: spores suspension Fungicides were solubilized in DMSO and the solution used to prepare the required range of concentrations. […] A spore suspension of A. alternata was prepared and diluted to the desired spore density. Fungicides were evaluated for their ability to inhibit spore germination and mycelium growth in liquid culture assay. The compounds were added in the desired concentration to the culture medium with spores. After 5 days incubation, fungi-toxicity of compounds was determined by spectrometric measurement of mycelium growth. Inhibition of fungal growth was determined by comparing the absorbance values in wells containing the fungicides with the absorbance in control wells without fungicides.

Pyricularia oryzae = assay: microbe, parasite or virus in culture; format: cell-based; conditions: 120 h, read-out: efficacy (inhibition of fungal growth), 50 μMol/l of active ingredient, liquid culture, 5 days incubation
[4] = test system: Colletotrichum lindemuthianum; assay: Colletotrichum lindemuthianum in vitro cell test; format: cell-based; conditions: 144 h, liquid culture, 6 days incubation, read-out: efficacy (inhibition of fungal growth); for inhibition at 50 µM: 50 μMol/l of active ingredient
Procedure, shortened: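 Inhibition of spore germination and mycelium growth, as absorbance relative to untreated wells, was read on day 6. Compounds from DMSO stocks were added to a spore suspension in glucose/peptone/yeast extract broth.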

Pyrenophora teres = Pyrenophora teres in vitro cell test; format: cell-based; conditions: 144 h, liquid culture, 6 days incubation, read-out: efficacy (inhibition of fungal growth); for inhibition at 50 µM: 50 μMol/l of active ingredient
Procedure, shortened: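 Compounds in DMSO were added to P. teres spore suspensions in glucose/peptone/yeast-extract liquid medium, testing inhibition of spore germination and mycelium growth. After 6 days, mycelium growth was read by absorbance. Inhibition was calculated relative to fungicide-free control wells.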

Botrytis cinerea [5] = assay: Botrytis cinerea in vitro cell test; format: cell-based; conditions: 144 h, liquid culture, 6 days incubation, read-out: efficacy (inhibition of fungal growth); for inhibition at 50 µM: 50 μMol/l of active ingredient
Procedure, shortened: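 Liquid-culture germination/growth test: spore suspension in synthetic medium (salts, urea, KNO3, saccharose, trace elements, thiamine, biotin) with compound dissolved in DMSO. Absorbance of mycelial growth measured at day 6, compared with untreated wells to give inhibition.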

Alternaria brassicae = assay: In vivo preventive test on Alternaria brassicae (leaf spot on radish or cabbage); conditions: 500 ppm of active ingredient, sprayed on young radish or cabbage plants 24 h before inoculation, evaluated 3 to 4 days after inoculation, read-out: efficacy
Method: as §1, with “B-1.” for “B-4.”, “radish or cabbage” for “bean”, “Alternaria brassicae” for “Colletotrichum lindemuthianum”

Fusarium culmorum = Fusarium culmorum in vitro cell test; format: cell-based; conditions: 120 h, 50 μMol/l of active ingredient, liquid culture, 5 days incubation, read-out: efficacy (inhibition of fungal growth)
Procedure, shortened: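 Spores in liquid mineral-salts/saccharose medium exposed to compounds (DMSO ≤1% final) for 5 days. Mycelium growth measured spectrometrically, with inhibition derived from absorbance relative to fungicide-free control wells.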

Septoria tritici = Septoria tritici in vitro cell test; format: cell-based; conditions: Zymoseptoria tritici, 168 h; 20 ppm of active ingredient; liquid culture, 7 days incubation; read-out: efficacy (inhibition of fungal growth)
Method: B-11. Septoria tritici In Vitro Cell Test • Solvent: DMSO • Culture medium: 1 g KH2PO4 (VWR), 1 g K2HPO4 (VWR), 0.5 g Urea (VWR), 3 g KNO3 (Prolabo), 10 g saccharose (VWR), 0.5 g MgSO4, 7H2O (Sigma), 0.07 g CaCl2, 2H2O (Prolabo), 0.2 mg MnSO4, H2O (Sigma), 0.6 mg CuSO4, 5H2O (Sigma), 7.9 mg ZnSO4, 7H2O (Sigma), 0.1 mg H3BO3 (Merck), 0.14 mg NaMoO4, 2H2O (Sigma), 2 mg thiamine (Sigma), 0.1 mg biotine (VWR), 4 mg FeSO4, 7H2O (Sigma), QSP 1 liter • Inoculum: spore suspension Fungicides were solubilized in DMSO and the solution used to prepare the required range of concentrations. […] A spore suspension of S. tritici was prepared and diluted to the desired spore density. Fungicides were evaluated for their ability to inhibit spore germination and mycelium growth in liquid culture assay. The compounds were added in the desired concentration to the culture medium with spores. […] Inhibition of fungal growth was determined by comparing the absorbance values in wells containing the fungicides with the absorbance in control wells without fungicides.

SMILES	chromatographic logP [1]	pest or weed control at 500 ppm (Botrytis cinerea [2]) [%]	pest or weed control at 500 ppm [3] [%]	inhibition at 50 µM (Alternaria alternata) [%]	inhibition at 50 µM (Pyricularia oryzae) [%]	inhibition at 50 µM [4] [%]	inhibition at 50 µM (Pyrenophora teres) [%]	inhibition at 50 µM (Botrytis cinerea [5]) [%]	pest or weed control at 500 ppm (Alternaria brassicae) [%]	inhibition at 50 µM (Fusarium culmorum) [%]	inhibition at 20 ppm ([4]; 20 ppm of active ingredient) [%]	inhibition at 20 ppm (Pyrenophora teres; 20 ppm of active ingredient) [%]	inhibition at 20 ppm (Botrytis cinerea [5]; 20 ppm of active ingredient) [%]	inhibition at 20 ppm (Septoria tritici) [%]
Cc1ccc([C@@H]2CON=C(c3c(Sc4cccc(C(F)(F)F)c4)nnc(C)c3C)N2)s1 (racemic) [Compound I-044]	3.36	90 to 100	90 to 100	70 to 79	80 to 89	90 to 100	90 to 100	90 to 100						
Cc1cc([C@H]2CON=C(c3c(Sc4ccccc4)nnc(C)c3C)N2)c(C)s1 (racemic) [Compound I-069]	3.03	90 to 100	70 to 79	80 to 89	80 to 89	90 to 100		90 to 100	80 to 89	90 to 100				
COc1cccc(Sc2cnc3ccccc3c2C2=NOC[C@H](Cc3ccc(C)cc3C)N2)c1 (racemic) [Compound I-012]	4.06										90 to 100	90 to 100	90 to 100	70 to 79
Cc1cccc(Sc2nnc3ccccc3c2C2=NOC[C@H](c3ccc(C)s3)N2)c1 (racemic) [Compound I-062]	3.47	90 to 100	90 to 100	90 to 100	80 to 89	90 to 100	90 to 100	90 to 100	90 to 100	90 to 100				
Cc1cccc(Sc2nnc3ccccc3c2C2=NOC[C@H](c3ccc(C)s3)N2)n1 (racemic) [Compound I-066]	2.69	90 to 100	70 to 79		70 to 79	90 to 100		90 to 100	80 to 89	70 to 79				
Cc1ccc([C@H]2CON=C(c3c(Sc4cccc(Cl)c4F)nnc4ccccc34)N2)s1 (racemic) [Compound I-108]	3.68	90 to 100	90 to 100	90 to 100	90 to 100	90 to 100	90 to 100	90 to 100	90 to 100	90 to 100				
Cc1cccc(Sc2nnc(C)c(C)c2C2=NOC[C@H](c3cc(C)sc3C)N2)c1 (racemic) [Compound I-078]	3.33	90 to 100	90 to 100	80 to 89	80 to 89	90 to 100	90 to 100	90 to 100	90 to 100	80 to 89				
Cc1ccc([C@H]2CON=C(c3c(Sc4cccc(F)c4)nnc4ccccc34)N2)s1 (racemic) [Compound I-042]	3.27	90 to 100	70 to 79	90 to 100	90 to 100	90 to 100	90 to 100	90 to 100	90 to 100	90 to 100				
